Patent US11337950B2, “Biologically active cannabidiol analogs” (University of Mississippi, priority 2016, dated 2022)
Values joined by “and” are separate entries in the source; they are usually repeats but may differ in a detail not shown here. Equal values may be shown once.

Assays:
[1] = Solubility of CBD and its analogs in Tocrisolve emulsion; type: physicochemical
Protocol: Formulations: 0.5% w/v CBD equivalent in Tocrisolve emulsion.
Tocrisolve composition: […] emulsion composed of a 1:4 ratio of soya oil/water that is emulsified with the block co-polymer Pluronic F68. Manufacturing process for the Tocrisolve emulsion: • Add accurately weighed amount of drug a glass vial. • Add required volume of Torcisolve blank emulsion to each vial • Vortex each vial for 5 minutes. • Sonicate each vial for 10 minutes. • Centrifuge each vial for 5 minutes at 9000 rpm at 25° C. • Collect the supernatant and analyze for CBD, CBD-Val Mono and CBD-Val-HS mono as applicable.

[2] = Bioavailability of CBD-Mono-VHS from a lipophilic suppository (Example 16); type: in vivo; parameters: unit not given here; conditions: rats, rectal 7.5 mg, Lipophilic (Wecobee M) Suppository; for Plasma Concentration of CBD-Mono-VHS: individual animals
Protocol: CBD-Mono-Val-Mono-HS was formulated in Wecobee M suppository base (a triglyceride lipophilic base) at 75 mg/mL of melted base. The study was carried out in a cannulated rat model. Three animals were administered 100 μl. each of the semisolid formulation for a rectal dose of 7.5 mg CBD-Mono-VHS. This is followed by collection of blood samples (250 μl.) at each data point (0, 0.25, 0.5, 1, 2, 4, 6, and 24 hr.). The blood was centrifuged and the plasma was used for LC-MS/MS analysis.

[3] = tested on: cisplatin-induced tactile allodynia; experiment: Cisplatin-induced tactile allodynia model, electronic von Frey (Examples 23, 24); type: in vivo, C57BL/6 mice; conditions: Example 24, mice; for Doses with mean withdrawal thresholds significantly higher compared to vehicle: ps≤0.0001
[4] = Organ distribution of CBD-Mono-VHS after oral administration (Example 19); type: in vivo, rats; conditions: rat, oral 4 mg/animal
[5] = In vivo eye tissue levels 90 min after topical application in Tocrisolve emulsion (Examples 12-14); parameters: species or system New Zealand albino rabbits
Protocol: Conscious male New Zealand albino rabbits were used. The formulations were applied topically into the rabbits eyes (50 μL containing the equivalent of 250 μg CBD) in Tocrisolve® emulsion formulations as described in Example 11. The animals were sacrificed 90 min. after drug application and the eye tissues harvested for analysis.
The same procedure was followed as shown under Example 12. Additional CBD analogs were tested in this example. In this example the tissue levels of both free CBD and intact analog were determined.
Formulations: Fifty microlitres of 0.5% w/v CBD in Tocrisolve emulsion (Dose: 0.25 mg)
Animal model: Conscious male new Zealand albino rabbits, Duration of the study: 90 min.
Aqueous humor, Vitreous humor, Retina-Choroid and Iris-Ciliary bodies analysed for parent compound as well as CBD.
Formulations: Fifty microlitres of 0.5% w/v Tocrisolve emulsion formulations (Dose: 0.25 mg)
Animal model: Conscious male new Zealand albino rabbits, Duration of the study: 90 min

[6] = tested on: morphine place preference; experiment: Morphine conditioned place preference, model of addiction (Example 25); conditions: mice, morphine groups, IP; CBD 2.5-20.0 mg/kg, CBD-val-HS 10.0 mg/kg
[7] = Plasma and organ concentrations of CBD and CBD-Mono-VHS after IP administration (Example 22); type: in vivo; conditions: mice
Protocol: CBD-Mono-VHS was administered intraperitoneally to mice at 2 doses (30 μg and 60 μg equivalent of CBD/mouse). Seventy minutes after dosing the animals (3 mice in each dose group), all animals were sacrificed. Blood, as well as organs (liver, spleen, kidney, and brain), were harvested for LC-MS/MS analysis of their content of both CBD and CBD-Mono-VHS.
Also shown is the concentration of CBD-Mono-VHS in the plasma 70 minutes after dosing.

[8] = Table 3, Set 1, rabbit eye, 90 min post topical 50 μL Tocrisolve emulsion, dose 0.25 mg CBD
[9] = Table 4, Set 2, rabbit, 90 min post topical 50 μL Tocrisolve emulsion, dose 250 μg
[10] = rabbit eye, 90 min post topical, 0.25 mg CBD
[11] = IP CBD-Mono-VHS, High Dose (60 μg CBD/mouse), 70 Minutes, AVG.

C=C(C)C1CCC(C)=CC1c1c(O)cc(CCCCC)cc1OC(=O)[C@@H](NC(=O)CCC(=O)O)C(C)C (some centres unmarked) [CBD-Mono-VHS, CBD-Mono-Valinate-Mono-Hemisuccinate]
Maximum solubility achieved in Tocrisolve ([1]; as the substance itself): 1.18 % w/v | Maximum solubility achieved in Tocrisolve (In terms of CBD) ([1]; in terms of CBD): (0.61) % w/v | Plasma Concentration of CBD-Mono-VHS, Average ([2]; 0 hr): 0.0 | Plasma Concentration of CBD-Mono-VHS ([2]; 0 hr): 0.0 | Plasma Concentration of CBD-Mono-VHS, Average ([2]; 0.25 hr): 6.0 | Plasma Concentration of CBD-Mono-VHS ([2]; 0.25 hr): 7.1 (2×) and 3.9 | Plasma Concentration of CBD-Mono-VHS, Average ([2]; 0.5 hr): 11.1 | Plasma Concentration of CBD-Mono-VHS ([2]; 0.5 hr): 9.0 and 12.8 and 11.6 | Plasma Concentration of CBD-Mono-VHS, Average ([2]; 1 hr): 15.5 | Plasma Concentration of CBD-Mono-VHS ([2]; 1 hr): 14.1 and 13.8 and 18.5 | Plasma Concentration of CBD-Mono-VHS, Average ([2]; 2 hr): 20.6 | Plasma Concentration of CBD-Mono-VHS ([2]; 2 hr): 12.7 and 14.5 and 34.6 | Plasma Concentration of CBD-Mono-VHS, Average ([2]; 4 hr): 31.5 | Plasma Concentration of CBD-Mono-VHS ([2]; 4 hr): 22.0 and 27.5 and 45.1 | Plasma Concentration of CBD-Mono-VHS, Average ([2]; 6 hr): 39.8 | Plasma Concentration of CBD-Mono-VHS ([2]; 6 hr): 24.8 and 41.6 and 53.0 | Plasma Concentration of CBD-Mono-VHS, Average ([2]; 24 hr): 17.2 | Plasma Concentration of CBD-Mono-VHS ([2]; 24 hr): 7.3 and 44.3 | Effect on cisplatin-induced tactile allodynia (eVF paw withdrawal), in words ([3]; 1.0 to 4.0 mg/kg (CBD equivalent) IP alone): dose-dependent attenuation of tactile allodynia that equal 2.5 mg/kg morphine at 3.0 and 4.0 mg/kg | Effect on cisplatin-induced tactile allodynia (eVF paw withdrawal), in words ([3]; 1.0 to 4.0 mg/kg (CBD equivalent) in combination with 0.1 mg/kg morphine, IP): shifted this dose response curve to the left where 2.0 mg/kg CBD-Mono-VHS attenuated tactile allodynia equal to that of 2.5 mg/kg morphine | Doses with mean withdrawal thresholds significantly higher compared to vehicle ([3]; IP alone): 2.0 to 4.0 mg/kg | Doses with mean withdrawal thresholds significantly higher compared to vehicle ([3]; IP, combination with 0.1 mg/kg morphine): 1.0 to 4.0 mg/kg | Organ level of CBD-Mono-VHS, KIDNEY ([4]; 2 HR): 353 ng/organ | Organ level of CBD-Mono-VHS, KIDNEY ([4]; 4 HR): 115 ng/organ | Analog Conc., AQ Humor [5, 8]: 90.3 ± 13.6 ng/g of tissue | Analog Conc., Iris Ciliary Bodies [5, 8]: 1034 ± 87.4 ng/g of tissue | Analog Conc., Retina Choroid [5, 8]: 689 ± 127 ng/g of tissue | CBD Conc., Iris Ciliary Bodies [5, 8]: 353 ± 43^ ng/g of tissue | CBD Conc., Retina Choroid [5, 8]: 194 ± 31.2 ng/g of tissue | Analog Concentration, Aqueous Humor [5, 9]: 98.7 ± 19.8 ng/g of tissue | Analog Concentration, Iris Ciliary Bodies [5, 9]: 422 ± 197 ng/g of tissue | Analog Concentration, Retina Choroid [5, 9]: 519 ± 476 ng/g of tissue | CBD concentration, Aqueous Humor [5, 9]: 61.3 ± 5.9 ng/g of tissue | CBD concentration, Iris Ciliary Bodies [5, 9]: 585 ± 103 ng/g of tissue | CBD concentration, Retina Choroid [5, 9]: 503 ± 373 ng/g of tissue | Ocular tissue levels of free CBD, in words (Example 13) [5, 10]: high levels of Free CBD in the retina choroid and iris-ciliary bodies | Ocular tissue levels of the applied substance, in words (Example 13) [5, 10]: detected in high concentration in the aqueous humor, retina choroid and iris-ciliary bodies | Penetration into the ocular tissues, in words (Example 14) ([5]; rabbit eye, topical Tocrisolve emulsion): superior analog for penetration into the different tissues of the eye | Effect on morphine place preference, in words [6]: significantly (P=0.005) blocked the addictive effects of morphine | Blood brain barrier passage, in words ([7]; IP 30 and 60 μg, 70 minutes): crosses the blood brain barrier | Organ concentrations after IP administration, in words ([7]; IP 30 and 60 μg, 70 minutes): high concentrations of the drug in all organs tested in a dose proportional manner | CBD Plasma Concentration, AVG. [7, 11]: 0.00 ng/mL | Total CBD, Brain, AVG. [7, 11]: 0.95 ng | Total CBD, Kidney, AVG. [7, 11]: 11.15 ng
